Experimental data: US8771983B2, “Method and kit for expressing protein under regulation of the expression from repeated sequence formed by gene amplification, and transformant” (National University of Corporation Hiroshima University, priority 2004, dated 2014)

Key:
[1] = tested on: expression of d2EGFP in human colon cancer cell COLO 320DM cells; assay: Level of expression of d2EGFP by cell sorter after selection with stepwise increasing Blasticidin concentrations (Example 3); type: cell-based; settings: 1 μg/ml Doxycycline
Method: (§1) Fluorescence intensity of these cells were measured by using a cell sorter. The measurement was carried out by sorting 20,000 cells by setting living cells at a gate. The cell sorter used was made by Becton Dickinson, and operated under conditions as described in the manual attached thereto.
(§2) In this method for detecting the fluorescence intensity, detection limit was 1, and all fluorescence intensities of 1 or less would be detected as 1. In view of this, a product of a ratio (cell %) of cells of fluorescence intensities of 2 or more in all living cells (10,000 cells) and an average of the fluorescence intensities of the cells having fluorescence intensities of 2 or more was calculated out for each experimental plot. This product is referred to as “accumulated fluorescence intensity” hereinafter and in later Examples and shown in boxed letter in the figures.
A plasmid (pSFVdhfr/d2EGFP) was transfected into human colon cancer cell COLO 320DM cells by lipofection. The plasmid (pSFVdhfr/d2EGFP) was a plasmid having (a) IR and MAR derived from human DHFR gene locus, (b) Blasticidin tolerance gene, and (c) d2EGFP gene that was under control of TRE-promoter (Tetracycline inducing promoter). The transformed cells were selected with 5 μg/ml of Blasticidin (Funakoshi Corp.) thereby obtaining many transformed clones. After the clones were mixed, the culturing was continued. […] Cells select with the respective Blasticidin concentrations were treated with 1 μg/ml of Doxycycline (Clontech Laboratories Inc.) added to the media so as to activate TRE-promoter and thereby inducing expression of d2EGFP (whose half-life is much shorter than general EGFP.

[2] = tested on: expression of d2EGFP in Tet-ON cells (COLO 320DM) transfected with pSFVdhfr/d2EGFP; assay: Level of expression of d2EGFP by cell sorter in HSR and DM clones of Tet-ON cells with 5-aza (Example 7); type: cell-based, human; settings: polyclonal population of Tet-ON cells with pSFVdhfr/d2EGFP; 5 μg/ml of Doxycycline
Method: as §1, §2
By lipofection, the pTet-ON plasmid (Clontech Laboratories Inc.) having Tet-ON gene encoding a transcription activating factor (Tet-ON protein) for promoting TRE-promoter was transfected into human colon cancer COLO 320DM. Transformed cells (hereinafter referred to as “Tet-ON cells”) which stably expressed Tet-ON protein, were selected with Hygromycin.
Next, the pSFVdhfr/d2EGFP plasmid was transfected into the Tet-ON cells by lipofection. The cells thus obtained were selected with 5 μg/ml of Blasticidin for approximately 3 weeks, thereby obtaining a polyclonal population of the stable transformed cells.
The expression of d2EGFP was induced in the polyclonal population by activating TRE-promoter by adding 5 μg/ml of Doxycycline (Clontech Laboratories Inc.) in the medium. FIG. 9 illustrates a result of analysis of the level of the expression of d2EGFP in this case by using a cell sorter. In FIG. 9, the value in parenthesis is an average of fluorescence intensities (i.e., average fluorescence intensity), and boxed value is an accumulated fluorescence intensity. Based on the result of FIG. 9, it was confirmed that the polyclonal population was a population for expressing d2EGFP (average fluorescence intensity: 6.25, accumulated fluorescence intensity: 536).
From the polyclonal population, given 30 clones were obtained by a limiting dilution method that was carried out by inoculating a clone to 6 well plates with such a low cell concentration of 30 cells/ml, and incubating the plates for 10 days to 2 weeks thereby obtaining colonies thereon.
From among the clones, 4 clones having high levels of expression of d2EGFP (Clone 4, Clone 5, Clone 6, and Clone 9) were selected by fluorescence microscopic observation. Mitotic chromosome samples of the 4 clones were prepared. By FISH method, detection for a base sequence derived from the transfected pSFVdhfr/d2EGFP plasmid was carried out. The preparation of mitotic chromosome samples and the FISH method were carried out as described in Shimizu, N., Kanda, T., and Wahl, G. M. Selective capture of acentric fragments by micronuclei provides a rapid method of purifying extrachromosomally amplified DNA. Nature Genet., 12: 65-71, 1996.
For 4 clones, induction with Doxycycline (Clontech Laboratories Inc.; 1 μg/ml) was carried out and 5-aza (0 μM, 1 μM or 3 μM) was added in the medium. After 1 week culturing, the level of expression of d2EGFP in each clone was analyzed by using a cell sorter.

[3] = tested on: expression of d2EGFP in human colon cancer COLO 320DM cells; assay: Change over time of d2EGFP expression after induction with Doxycycline in cells cotransfected with pSFVdhfr/d2EGFP and pTet-ON plasmid (Example 8); type: cell-based; settings: polyclonal population
Method: as §1, §2
An equimolar mixture of a plasmid (pSFVdhfr/d2EGFP) and pTet-ON plasmid (Clontech Laboratories Inc.) was simultaneously transfected into human colon cancer COLO 320DM cells. The plasmid (pSFVdhfr/d2EGFP) was a plasmid having (a) IR and MAR derived from human DHFR gene locus, (b) Blasticidin tolerance gene, and (c) d2EGFP gene that was under control of TRE-promoter (Tetracycline inducing promoter). Meanwhile, the pTet-ON plasmid was a plasmid having Tet-ON gene encoding the transcription activating factor (Tet-ON protein) of TRE-promoter. The cells were selected with 5 μg/ml of Blasticidin thereby obtaining a polyclonal population of transformed cells. TRE-promoter was activated by adding 1 μg/ml of Doxycycline (Clontech Laboratories Inc.) in the medium of a cell culturing solution of the polyclonal population, thereby inducing the expression of d2EGFP.
Next, after the expression of d2EGFP was induced by Doxycycline, the level of the expression of d2EGFP was analyzed by using a cell sorter so as to find a change in the level of the expression of d2EGFP over time. […] In FIG. 16, the value in parenthesis is an average of fluorescence intensities (i.e., average fluorescence intensity), and boxed value is an accumulated fluorescence intensity.
FIG. 17 illustrates a graph plotting the averages (i.e., average fluorescence intensities: indicated by filled circles in FIG. 17) and living cell ratio (a ratio of living cells over total cell number: indicated by open circles) of the level of the expression of d2EGFP against time. […] The level was maintained high even after two weeks lapsed (labeled as “2wk” in FIG. 17).

[4] = tested on: expression of d2EGFP in human colon cancer cells COLO 320DM cells; assay: Level of expression of d2EGFP after treatment of cells with 5-aza-2′-deoxycytidine and/or Trichostatin A (Example 6); type: cell-based
Method: as §1, §2
A mixture of a plasmid (pSFVdhfr/d2EGFP) and the plasmid DNA having the Aves-derived HS4 insulator sequence was transfected to human colon cancer cells COLO 320DM cells by lipofection. The plasmid (pSFVdhfr/d2EGFP) was a plasmid having (a) IR and MAR derived from human DHFR gene locus, (b) Blasticidin tolerance gene, and (c) d2EGFP gene that was under control of TRE-promoter (Tetracycline inducing promoter). The plasmid DNA having the Aves-derived HS4 insulator sequence was identical with the one described in Example 2. From 2 days later since the gene transfection, the cells were selected with 5 μg/ml of Blasticidin (Funakoshi Corp.). After 3 to 4 weeks, many colonies of transformed cells were obtained.
Into a culture solution of the transformed cells, of 1 μM or 3 μM of 5-aza-2′ deoxycytidine (hereinafter referred to as “5-aza” where appropriate; Sigma) was added. Thereby, the cells were treated with 5-aza for 3 days. For comparison purposes, 20 nM of Trichostatin A (hereinafter referred to as “TSA” where appropriate; histone deacetylation inhibitor, Sigma), which is known as a material for increasing gene expression from the repeated sequence, was added to some culture solutions of the transformed cells and analyzed.

[5] = pSFVdhfr/d2EGFP cells selected with 5 μg/ml of Blasticidin
[6] = pSFVdhfr/d2EGFP cells selected with 40 μg/ml of Blasticidin
[7] = pSFVdhfr/d2EGFP cells selected with 160 μg/ml of Blasticidin
[8] = pSFVdhfr/d2EGFP cells selected with 320 μg/ml of Blasticidin
[9] = fifteen hours after the addition of Doxycycline (1 μg/ml)
[10] = forty eight hours (2 days) after the addition of Doxycycline (1 μg/ml)
[11] = one hour after the addition of Doxycycline (1 μg/ml)
[12] = one hundred twenty hours (5 days) after the addition of Doxycycline (1 μg/ml)
[13] = six hours after the addition of Doxycycline (1 μg/ml)
[14] = three hours after the addition of Doxycycline (1 μg/ml)
[15] = twenty four hours after the addition of Doxycycline (1 μg/ml)
[16] = two weeks after the addition of Doxycycline (1 μg/ml)

CN(CC[C@H](N)CC(=O)N[C@H]1C=C[C@H](n2ccc(N)nc2=O)O[C@@H]1C(=O)O)C(=N)N [Blasticidin]
average fluorescence intensity ([1]; pSFVdhfr/d2EGFP cells selected with 10 ng/ml of Blasticidin): 3.77
accumulated fluorescence intensity [1, 5]: 222
average fluorescence intensity [1, 5]: 2.94
accumulated fluorescence intensity [1, 6]: 640
average fluorescence intensity [1, 6]: 6.67
accumulated fluorescence intensity [1, 7]: 929
average fluorescence intensity [1, 7]: 9.47
accumulated fluorescence intensity [1, 8]: 1850
average fluorescence intensity [1, 8]: 18.55

C[C@H]1c2cccc(O)c2C(=O)C2=C(O)[C@]3(O)C(=O)C(C(N)=O)=C(O)[C@@H](N(C)C)[C@@H]3[C@@H](O)[C@@H]21 [Doxycycline]
accumulated fluorescence intensity [2]: 536
average fluorescence intensity [2]: 6.25
accumulated fluorescence intensity [3, 9]: 841
average fluorescence intensity [3, 9]: 9.24
accumulated fluorescence intensity [3, 10]: 5320
average fluorescence intensity [3, 10]: 53.97
accumulated fluorescence intensity [3, 11]: 216
average fluorescence intensity [3, 11]: 2.99
accumulated fluorescence intensity [3, 12]: 3880
average fluorescence intensity [3, 12]: 39.56
survival ratio of the cells (living cell ratio) ([3]; expression of d2EGFP induced by Doxycycline, up to two weeks): no decrease in the survival ratio
accumulated fluorescence intensity [3, 13]: 341
average fluorescence intensity [3, 13]: 4.22
accumulated fluorescence intensity [3, 14]: 293
average fluorescence intensity [3, 14]: 3.72
accumulated fluorescence intensity [3, 15]: 2800
average fluorescence intensity [3, 15]: 28.77
accumulated fluorescence intensity [3, 16]: 3500
average fluorescence intensity [3, 16]: 35.32

CC(/C=C/C(=O)NO)=C\[C@@H](C)C(=O)c1ccc(N(C)C)cc1 [TSA, Trichostatin A]
accumulated fluorescence intensity ([4]; 20 nM of TSA): 228
average fluorescence intensity ([4]; 20 nM of TSA): 3.02
effect on the expression of the target protein ([4]; 20 nM of TSA versus cells before treatment): cannot increase the expression of the target protein
